In article PMC8531348, “Design, synthesis, biological evaluation, and molecular modeling studies of pyrazole-benzofuran hybrids as new α-glucosidase inhibitor” (Scientific Reports, 2021):
“And” between values parts separate entries of the source, which are not always exact repeats. Equal values may be shown once. Read-outs that look alike come from different tables or passages of the source.

Key:
[1] = Cytotoxicity against normal 3T3 cell line by MTT assay; type: cell-based; conditions: mouse, 3T3 cells (normal cell line); MTT assay, normal 3T3 cell line
Protocol: (§1) The results of cytotoxic activity were expressed as the IC50 (µM) and outlined in Table 2.
(§2) The cytotoxicity of the compounds 8e, 8l, 8f and 8n was determined using the 3-(4,5 Dimethylthiazol-2-yl)-2,5-diphenyltetrazolium bromide (MTT) assay according to previously described methods.

3T3 cell line = assay: as above; type: cell-based; conditions: at 150 µM concentration, 3T3, MTT
Protocol: as §1, §2

[2] = target: T1, α-glucosidase enzyme (from Saccharomyces cerevisiae, EC3.2.1.20) (Saccharomyces cerevisiae, UniProt P53341); assay: biochemical; type: biochemical; conditions: for fold more potent than the standard acarbose: ratio of IC50 versus acarbose
T1 construct: purchased Sigma Chemical Co. (St. Louis, USA)
T1 sequence (P53341 whole entry): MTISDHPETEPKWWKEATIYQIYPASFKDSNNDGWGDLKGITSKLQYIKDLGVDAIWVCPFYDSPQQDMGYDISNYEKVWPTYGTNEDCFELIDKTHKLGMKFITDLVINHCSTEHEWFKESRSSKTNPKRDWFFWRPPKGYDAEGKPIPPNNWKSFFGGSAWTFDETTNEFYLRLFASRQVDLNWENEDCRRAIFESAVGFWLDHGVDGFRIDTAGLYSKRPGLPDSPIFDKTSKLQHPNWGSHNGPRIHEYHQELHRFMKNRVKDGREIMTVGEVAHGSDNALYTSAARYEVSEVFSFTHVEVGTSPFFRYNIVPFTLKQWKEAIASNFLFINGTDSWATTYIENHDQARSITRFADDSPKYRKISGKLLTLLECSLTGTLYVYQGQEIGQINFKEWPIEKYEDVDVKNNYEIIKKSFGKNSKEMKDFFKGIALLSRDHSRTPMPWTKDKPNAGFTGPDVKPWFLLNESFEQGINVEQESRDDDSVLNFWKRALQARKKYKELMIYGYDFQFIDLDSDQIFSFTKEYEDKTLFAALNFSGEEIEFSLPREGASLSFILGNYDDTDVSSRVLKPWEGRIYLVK
Protocol: The α-glucosidase enzyme (from Saccharomyces cerevisiae, EC3.2.1.20) was used to evaluate the α-glucosidase inhibitory activity. […] Therefore, α-glucosidase from yeast is extensively used for the preliminary screening of α-glucosidase inhibitors[47],[48]. […] Stock solutions of the test compounds and acarbose were prepared in DMSO and eventually diluted with phosphate buffer saline to attain the desired concentration. […] The percentage of enzyme inhibition for each entry was calculated using the following formula:
% Inhibition = [(Abs control—Abs sample)/Abs control] × 100.

α-glucosidase = target: T2, α-glucosidase (Saccharomyces cerevisiae, UniProt P53341); assay: Kinetic study of α-glucosidase inhibition (Lineweaver–Burk plots); type: biochemical
T2 construct: purchased Sigma Chemical Co. (St. Louis, USA)
T2 sequence (P53341 whole entry): as above
Protocol: In different concentrations of test compound (0, 10, 25, and 40 µM) and with the incremental concentration (2–10 mM) of substrate, the rate of the enzyme activity was calculated. The type of inhibition and experimental inhibition constant (Ki) value were determined by employing Lineweaver–Burk plots and secondary re-plot of these plots, respectively. […] This pattern indicates a competitive type of inhibition.
The kinetics of enzyme inhibition was performed according to the reaction conditions in 2.5 by preparing a series of test solutions in which the concentration of the substrate (PNPG) was varied (2–10 mM) in the absence and presence of compound 8e at different concentrations (0, 10, 25, and 40 µM). A Lineweaver–Burk plot was generated to identify the type of inhibition and the Michaelis–Menten constant (Km) value was determined from the plot between reciprocal of the substrate concentration (1/[S]) and reciprocal of enzyme rate (1/V) over various inhibitor concentrations. The experimental inhibitor constant (Ki) value was constructed by secondary plots of the inhibitor concentration [I] versus Km.

| Structure (SMILES) | melting point [°C] | IC50 [2] [µM] | further results |
| --- | --- | --- | --- |
| COc1ccc(-c2nn(-c3ccc(C)cc3)cc2C=NNC(=O)c2cc3ccccc3o2)cc1 [8l, N'-((3-(4-Methoxyphenyl)-1-p-tolyl-1H-pyrazol-4-yl)methylene)benzofuran-2-carbohydrazide] | 230 to 232 | 54.7 ± 0.3 | IC50 [1]: > 150 µM; cytotoxicity against normal cell line (3T3 cell line): noncytotoxic; increase in activity compared with compound 8c ([2]; effect of methyl group on R2): two-fold; fold more potent than the standard acarbose [2]: > 13 fold |
| O=C(NN=Cc1cn(-c2ccccc2)nc1-c1ccc([N+](=O)[O-])cc1)c1cc2ccccc2o1 [8e, N'-((3-(4-Nitrophenyl)-1-phenyl-1H-pyrazol-4-yl)methylene)benzofuran-2-carbohydrazide] | – | – | IC50 [1]: > 150 µM; cytotoxicity against normal cell line (3T3 cell line): noncytotoxic; type of inhibition (α-glucosidase; Lineweaver–Burk plot): competitive; Ki (α-glucosidase; secondary re-plot of Lineweaver–Burk plots, 0, 10, 25, 40 µM inhibitor, substrate 2–10 mM, read-out: inhibition constant Ki): ~38 µM and 38 µM; IC50 ([2]; mean ± SD, at least three experiments, substrate p-nitrophenyl-α-glucopyranoside, read-out: IC50 α-glucosidase inhibitory activity): 40.6 ± 0.2 µM; fold more potent than the standard acarbose [2]: approximately 18 fold |
| Cc1ccc(-n2cc(C=NNC(=O)c3cc4ccccc4o3)c(-c3ccc(O)cc3)n2)cc1 [8m, N'-((3-(4-Hydroxyphenyl)-1-p-tolyl-1H-pyrazol-4-yl)methylene)benzofuran-2-carbohydrazide] | 293 to 295 | 127 ± 1 | – |
| O=C(NN=Cc1cn(-c2ccccc2)nc1-c1ccc(C(F)(F)F)cc1)c1cc2ccccc2o1 [8i, N'-((1-Phenyl-3-(4-(trifluoromethyl)phenyl)-1H-pyrazol-4-yl)methylene)benzofuran-2-carbohydrazide] | 217 to 218 | 101.7 ± 0.7 | – |
| O=C(NN=Cc1cn(-c2ccccc2)nc1-c1ccc(F)cc1)c1cc2ccccc2o1 [8h, N'-((3-(4-Fluorophenyl)-1-phenyl-1H-pyrazol-4-yl)methylene)benzofuran-2-carbohydrazide] | 253 to 254 | 164 ± 1.8 | – |
| O=C(N/N=C/c1cn(-c2ccccc2)nc1-c1ccc(O)cc1)c1cc2ccccc2o1 [8d, (E)-N'-((3-(4-hydroxyphenyl)-1-phenyl-1H-pyrazol-4-yl)methylene)benzofuran-2-carbohydrazide] | 280 to 281 | 133.6 ± 1.2 | – |
| Cc1ccc(-c2nn(-c3ccccc3)cc2C=NNC(=O)c2cc3ccccc3o2)cc1 [8b, N'-((1-Phenyl-3-p-tolyl-1H-pyrazol-4-yl)methylene)benzofuran-2-carbohydrazide] | 234 to 235 | 108.3 ± 0.8 | – |
| O=C(NN=Cc1cn(-c2ccccc2)nc1-c1ccc(Br)cc1)c1cc2ccccc2o1 [8f, N'-((3-(4-Bromophenyl)-1-phenyl-1H-pyrazol-4-yl)methylene)benzofuran-2-carbohydrazide] | 243 to 245 | 79.7 ± 0.5 | IC50 [1]: > 150 µM; cytotoxicity against normal cell line (3T3 cell line): noncytotoxic; fold more potent than the standard acarbose [2]: nine-fold |
| Cc1ccc(-n2cc(C=NNC(=O)c3cc4ccccc4o3)c(-c3ccc(Cl)cc3)n2)cc1 [8o, N'-((3-(4-Chlorophenyl)-1-p-tolyl-1H-pyrazol-4-yl)methylene)benzofuran-2-carbohydrazide] | 248 to 249 | 155 ± 1.6 | – |
| Cc1ccc(-c2nn(-c3ccc(C)cc3)cc2C=NNC(=O)c2cc3ccccc3o2)cc1 [8k, N'-((1,3-Dip-tolyl-1H-pyrazol-4-yl)methylene)benzofuran-2-carbohydrazide] | 259 to 261 | 115.6 ± 0.9 | – |
| COc1ccc(-c2nn(-c3ccccc3)cc2C=NNC(=O)c2cc3ccccc3o2)cc1 [8c, N'-((3-(4-Methoxyphenyl)-1-phenyl-1H-pyrazol-4-yl)methylene)benzofuran-2-carbohydrazide] | 207 to 209 | 100.3 ± 0.7 | – |
| Cc1ccc(-n2cc(C=NNC(=O)c3cc4ccccc4o3)c(-c3ccc(Br)cc3)n2)cc1 [8n, N'-((3-(4-Bromophenyl)-1-p-tolyl-1H-pyrazol-4-yl)methylene)benzofuran-2-carbohydrazide] | 258 to 259 | 95.6 ± 0.6 | IC50 [1]: > 150 µM; cytotoxicity against normal cell line (3T3 cell line): noncytotoxic; fold more potent than the standard acarbose [2]: approximately eight-fold |
| O=C(NN=Cc1cn(-c2ccccc2)nc1-c1ccccc1)c1cc2ccccc2o1 [8a, N'-((1,3-Diphenyl-1H-pyrazol-4-yl)methylene)benzofuran-2-carbohydrazide] | 210 to 211 | 141.2 ± 1.4 | – |
| O=C(NN=Cc1cn(-c2ccccc2)nc1-c1ccc(Cl)cc1)c1cc2ccccc2o1 [8g, N'-((3-(4-Chlorophenyl)-1-phenyl-1H-pyrazol-4-yl)methylene)benzofuran-2-carbohydrazide] | 241 to 243 | 125.3 ± 1 | – |
| Cc1ccc(-n2cc(C=NNC(=O)c3cc4ccccc4o3)c(-c3ccccc3)n2)cc1 [8j, N'-((3-Phenyl-1-p-tolyl-1H-pyrazol-4-yl)methylene)benzofuran-2-carbohydrazide] | 255 to 256 | 157 ± 1.6 | – |
